Laboratory results as given in patent US11479551B2, “MTA-cooperative PRMT5 inhibitors” (Mirati Therapeutics, Inc., priority 2019, dated 2022).
Read-outs that look alike come from different tables or passages of the source.

Molecular target: PRMT5/MEP50 complex (Homo sapiens (Human), UniProt O14744)
Assay: PRMT5:MEP50 FlashPlate Assay (histone H4 peptide substrate, plus and minus MTA)
Format: biochemical
Description: The PRMT5 inhibitory activity of compounds of the present invention was determined using either a PRMT5:MEP50 FlashPlate Assay (Reaction Biology Corporation) or a PRMT5:MEP50 HotSpot Assay (Reaction Biology Corporation).
1. PRMT5:MEP50 FlashPlate Assay

[1] = IC50 + 2 μM MTA (nM), in the presence of 2 μM MTA
[2] = in the absence of MTA, read-out: IC50

Sequence of PRMT5/MEP50 complex (O14744 2-637): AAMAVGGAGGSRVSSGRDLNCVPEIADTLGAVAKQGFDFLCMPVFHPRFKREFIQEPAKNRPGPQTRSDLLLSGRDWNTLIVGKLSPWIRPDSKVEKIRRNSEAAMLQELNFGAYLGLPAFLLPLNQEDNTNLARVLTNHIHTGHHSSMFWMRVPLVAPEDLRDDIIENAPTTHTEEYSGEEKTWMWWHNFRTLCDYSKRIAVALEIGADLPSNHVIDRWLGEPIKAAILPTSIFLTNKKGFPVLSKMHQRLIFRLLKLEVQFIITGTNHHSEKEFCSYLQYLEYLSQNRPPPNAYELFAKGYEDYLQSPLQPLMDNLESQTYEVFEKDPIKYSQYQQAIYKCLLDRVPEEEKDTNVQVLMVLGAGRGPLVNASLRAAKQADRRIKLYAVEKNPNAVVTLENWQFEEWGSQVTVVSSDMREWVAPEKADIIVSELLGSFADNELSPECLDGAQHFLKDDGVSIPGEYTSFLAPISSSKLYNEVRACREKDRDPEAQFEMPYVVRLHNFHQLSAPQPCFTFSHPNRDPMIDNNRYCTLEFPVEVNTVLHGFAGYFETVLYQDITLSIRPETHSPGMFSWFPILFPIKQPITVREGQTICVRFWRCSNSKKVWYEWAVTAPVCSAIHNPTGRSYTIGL
Sequence of PRMT5/MEP50 complex (Q9BQA1 2-342 partner): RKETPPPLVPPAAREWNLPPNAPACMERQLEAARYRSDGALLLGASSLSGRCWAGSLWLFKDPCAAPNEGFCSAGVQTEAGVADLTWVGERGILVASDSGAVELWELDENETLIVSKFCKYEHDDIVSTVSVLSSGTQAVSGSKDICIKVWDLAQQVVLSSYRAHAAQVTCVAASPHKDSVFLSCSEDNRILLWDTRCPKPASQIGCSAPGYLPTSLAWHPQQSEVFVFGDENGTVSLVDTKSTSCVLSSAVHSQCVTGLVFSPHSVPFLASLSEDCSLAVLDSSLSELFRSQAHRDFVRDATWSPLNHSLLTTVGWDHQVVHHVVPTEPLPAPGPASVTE

IC50 [1] [nM]	IC50 [2] [nM]	Structure (SMILES)
5800	> 100000	NCc1n[nH]c(=O)c2ccc(-n3ccnc3)cc12 [Example 6-1, 4-(aminomethyl)-6-imidazol-1-yl-2H-phthalazin-1-one]
> 100000	> 100000	CCCNc1ccc2c(CN)n[nH]c(=O)c2c1 [Example 6-2]
9400	> 100000	NCc1n[nH]c(=O)c2cc(Nc3ccccc3)ccc12 [Example 6-3, 4-(aminomethyl)-7-anilino-2H-phthalazin-1-one]
19000	–	NCc1n[nH]c(=O)c2cc(NCc3ccccc3)ccc12 [Example 6-4, 4-(aminomethyl)-7-(benzylamino)-2H-phthalazin-1-one]
> 100000	> 100000	NCc1n[nH]c(=O)c2ccc(N3CCOCC3)cc12 [Example 6-5, 4-(aminomethyl)-6-morpholino-2H-phthalazin-1-one]
490	11200	NCc1n[nH]c(=O)c2ccc(-c3cncc(Oc4ccncc4)c3)cc12 [Example 7-1, 4-(aminomethyl)-6-(5-(pyridin-4-yloxy)pyridin-3-yl)phthalazin-1(2H)-one]
16	246	N#Cc1ccccc1Oc1cncc(-c2ccc3c(=O)[nH]nc(CN)c3c2)c1 [Example 7-2, 2-((5-(4-(aminomethyl)-1-oxo-1,2-dihydrophthalazin-6-yl)pyridin-3-yl)oxy)benzonitrile]
15	388	NCc1n[nH]c(=O)c2ccc(-c3cncc(Oc4ccc(F)cc4)c3)cc12 [Example 7-3, 4-(aminomethyl)-6-(5-(4-fluorophenoxy)pyridin-3-yl)phthalazin-1(2H)-one]

Continued, compound first:

Structure (SMILES)	IC50 [1] [nM]	IC50 [2] [nM]
Cn1ncc(-c2ccc3c(=O)[nH]nc(CN)c3c2)c1-c1cccc(Cl)c1 [Example 4-92, 4-(aminomethyl)-6-(5-(3-chlorophenyl)-1-methyl-1H-pyrazol-4-yl)phthalazin-1(2H)-one]	3.5	137
Cn1ncc(-c2ccc3c(=O)[nH]nc(CN)c3c2)c1-c1ccc(F)cc1 [Example 4-95, 4-(aminomethyl)-6-(5-(4-fluorophenyl)-1-methyl-1H-pyrazol-4-yl)phthalazin-1(2H)-one]	4.9	228
Cc1ccc(-c2c(-c3ccc4c(=O)[nH]nc(CN)c4c3)cnn2C)cc1 [Example 4-97, 4-(aminomethyl)-6-(1-methyl-5-(p-tolyl)-1H-pyrazol-4-yl)phthalazin-1(2H)-one]	1.6	49
Cc1ccc(-c2c(-c3ccc4c(=O)[nH]nc(CN)c4c3)cnn2C)cn1 [Example 4-99, 4-(aminomethyl)-6-(1-methyl-5-(6-methylpyridin-3-yl)-1H-pyrazol-4-yl)phthalazin-1(2H)-one]	15	547
NCc1n[nH]c(=O)c2ccc(-c3cncn3Cc3ccccc3)cc12 [Example 4-108, 4-(aminomethyl)-6-(1-benzyl-1H-imidazol-5-yl)phthalazin-1(2H)-one]	900	8650
Cc1ncc(-c2ccc3c(=O)[nH]nc(CN)c3c2)n1CC#N [Example 4-109, 2-(5-(4-(aminomethyl)-1-oxo-1,2-dihydrophthalazin-6-yl)-2-methyl-1H-imidazol-1-yl)acetonitrile]	120	4870
Cc1nc2cncc(-c3ccc4c(=O)[nH]nc(CN)c4c3)c2o1 [Example 4-110, 4-(aminomethyl)-6-(2-methyloxazolo[4,5-c]pyridin-7-yl)phthalazin-1(2H)-one]	1000	–
NCc1n[nH]c(=O)c2ccc(-c3cncc([S+]([O-])c4ccccc4)c3)cc12 (centres unmarked) [Example 4-111, 4-(aminomethyl)-6-(5-(phenylsulfinyl)pyridin-3-yl)phthalazin-1(2H)-one]	12	472
NCc1n[nH]c(=O)c2ccc(C3CCCC3)cc12 [Example 5-1, 4-(aminomethyl)-6-cyclopentylphthalazin-1(2H)-one]	72000	> 100000
